The target of assay [1] is human CB2 receptor (hCB2) (Homo sapiens, UniProt P34972). The experiment in a line: cAMP assay at human CB2 receptor. It is filed as cell-based. To be noted: EC50 (Potency at Human CB2 determined by cAMP Assay), hCB2R; maximum measurable range 30 μM. The method, boiled down:
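Values expressed as percent of the window between forskolin-stimulated wells and forskolin plus 1 μM CP55,940 wells.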
On the technique in general: cAMP levels reflect the balance of adenylyl cyclase and phosphodiesterase activity.

For assay [2], the target named is human CB1 receptor (hCB1) (Homo sapiens, UniProt P21554). The assay can be described thus: cAMP assay at human CB1 receptor. To be noted: hCB1R; maximum measurable range 30 μM; read-out: EC50 (Potency at Human CB1 determined by cAMP Assay). The format is cell-based. The method, boiled down: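 Changes in intracellular cAMP measured by TR-FRET (665/615 nm) in forskolin-stimulated cells; cAMP read from a concurrent standard curve. Values normalised between forskolin and forskolin plus 1 μM CP55,940 wells. EC50 and intrinsic activity relative to CP55,940 from four-parameter nonlinear regression.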
Chain of human CB1 receptor (hCB1) (P21554 whole entry): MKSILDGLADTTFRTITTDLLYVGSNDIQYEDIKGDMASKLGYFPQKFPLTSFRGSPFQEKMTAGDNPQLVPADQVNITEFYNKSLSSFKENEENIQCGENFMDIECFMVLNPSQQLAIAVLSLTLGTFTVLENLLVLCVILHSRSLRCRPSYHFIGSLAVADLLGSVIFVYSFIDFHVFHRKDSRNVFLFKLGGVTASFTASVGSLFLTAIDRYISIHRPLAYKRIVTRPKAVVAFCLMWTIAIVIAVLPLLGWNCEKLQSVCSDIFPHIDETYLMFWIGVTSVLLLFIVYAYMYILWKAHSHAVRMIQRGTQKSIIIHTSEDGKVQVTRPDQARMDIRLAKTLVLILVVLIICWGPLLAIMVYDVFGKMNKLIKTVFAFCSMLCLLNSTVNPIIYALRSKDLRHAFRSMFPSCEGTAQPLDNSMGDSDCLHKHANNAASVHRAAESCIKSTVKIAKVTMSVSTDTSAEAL

For another assay, the system named is Male ICR mice. The assay can be described thus: Inhibition of acetic acid-induced writhing in mice. The format is in vivo, mouse. To be noted: dose of 10 mg/kg, subcutaneous 30 min before acetic acid. The text has this:
12: 525-562; Ramabadran and Bansinath (1986) Pharm. Res. 3: 263-270]. Intraperitoneal administration of dilute acetic acid solution causes a writhing behavior in mice. A writhe is defined as a contraction of the abdominal muscles accompanied by an extension of the forelimbs and elongation of the body. The number of writhes observed in the presence and absence of test compounds is counted to determine the analgesic activity of the compounds.
Male ICR mice, 20-40 grams in weight, were weighed and placed in individual observation chambers (usually a 4 L beaker) with a fine layer of rodent bedding at the bottom. To determine the activity and potency of test compounds, different doses of the compound solution or vehicle were injected subcutaneously in the back of the neck 30 minutes prior to administration of acetic acid solution. After administration of the compound or vehicle control, mice were returned to their individual observation chambers awaiting the intraperitoneal administration of acetic acid solution.
Thirty minutes later, 10 ml/kg of a 0.6% (v/v) acetic acid solution was then injected into the right lower quadrant of the abdomen. Immediately after the injection, the mouse was returned to its observation chamber and the recording of the number of writhes is begun immediately. The number of writhes was counted over a 15-min period starting from the time of acetic acid injection. Raw data were analyzed using a one-way ANOVA followed by Dunnett's post-tests.
For dose-response analysis, raw data were converted to % maximum possible effect (% MPE) using the formula: % MPE=((Wc−Wv)/(0−Wv))*100, where Wc is the number of writhes in compound-treated mice and Wv is the mean number of writhes in vehicle-treated mice. The dose which elicited 50% attenuation of hypersensitivity (ED50) can be determined using linear regression analysis. (Tallarida & Murray, 1987).

Chain of human CB2 receptor (hCB2) (P34972 whole entry): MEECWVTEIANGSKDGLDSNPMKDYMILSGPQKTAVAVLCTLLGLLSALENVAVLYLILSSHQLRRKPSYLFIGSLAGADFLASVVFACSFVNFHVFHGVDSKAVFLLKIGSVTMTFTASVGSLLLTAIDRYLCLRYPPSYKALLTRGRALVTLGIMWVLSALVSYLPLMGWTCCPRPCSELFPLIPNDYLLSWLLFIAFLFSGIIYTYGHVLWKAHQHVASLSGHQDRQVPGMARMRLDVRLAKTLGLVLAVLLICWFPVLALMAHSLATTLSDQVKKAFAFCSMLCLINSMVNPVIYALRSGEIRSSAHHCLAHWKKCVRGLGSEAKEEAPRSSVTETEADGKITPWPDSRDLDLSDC

With `CC(C)(C)[C@H](NC(=O)n1nc(-c2cc(F)c(F)cc2F)c2c1CCOC2)C(=O)NCCO` [Compound 35, (S)—N-(1-(2-hydroxyethylamino)-3,3-dimethyl-1-oxobutan-2-yl)-3-(2,4,5-trifluorophenyl)-6,7-dihydropyrano[4,3-c]pyrazole-1(4H)-carboxamide], the 50% effective concentration (EC50) in assay [1] and in assay [2] was under 1000 nM in each case. Besides, in the assay on Male ICR mice, the “reversal of the mechanical hyperalgesia induced by the acetic acid treatment” value (shortened to “reversal”) is 100%.
Consider `CNC(=O)[C@@H](NC(=O)n1nc(-c2cc(F)c(F)cc2F)c2c1CCN(C)C2)C(C)(C)C` [Compound 37, (S)—N-(3,3-dimethyl-1-(methylamino)-1-oxobutan-2-yl)-5-methyl-3-(2,4,5-trifluorophenyl)-4,5,6,7-tetrahydro-1H-pyrazolo[4,3-c]pyridine-1-carboxamide], for which the EC50 in assay [1] and in assay [2] was under 1000 nM throughout. The “reversal” value in the assay with Male ICR mice is reported as 100%.
`CNC(=O)[C@@H](NC(=O)n1nc(-c2ccc(F)c(F)c2)c2c1CCOC2)C(C)(C)C` [Compound 28, (S)-3-(3,4-difluorophenyl)-N-(3,3-dimethyl-1-(methyl-amino)-1-oxobutan-2-yl)-6,7-dihydropyrano[4,3-c]pyrazole-1(4H)-carboxamide]: the 50% effective concentration (EC50) in assay [1] and in assay [2] was under 1000 nM each time. In the assay with Male ICR mice, the “reversal” value is 100%.

The EC50 is the midpoint of the concentration-response curve.

For the origin of these results see patent US7741350B1 (Cara Therapeutics, Inc., priority 2009, dated 2010).
